Experimental data: PubChem BioAssay (NCI)
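Cultured in 96-well plates, cells were exposed to test compound for 48 hours across five concentrations. GI50 = concentration required for 50% inhibition of growth. TGI: total growth inhibition.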

Key:
Assay in all cases: inhibition of tumour cell growth, NCI panel, 48 h
[1] = test system: A498 renal
[2] = test system: HOP-62 NSCLC
[3] = test system: M14 melanoma
[4] = test system: MALME-3M melanoma
[5] = test system: OVCAR-8 ovarian
[6] = test system: UACC-257 melanoma
[7] = test system: COLO 205 colon
[8] = test system: DU-145 prostate
[9] = test system: MDA-MB-231 breast
[10] = test system: MDA-MB-435

Row | Compound | TGI [1] | TGI [2] | TGI [3] | TGI [4] | TGI [5] | TGI [6] | TGI [7] | TGI [8] | TGI [9] | TGI [10] | GI50 [1] | GI50 [7] | GI50 [2] | GI50 [3] | GI50 [4] | GI50 [5] | GI50 [6] | GI50 [8] | GI50 [9] | GI50 [10]
1 | CSC(=O)C[C@@]12O[C@@H]([C@@H](C)C3CCC4[C@@H]5C(O)CC6=CC(=O)C=C[C@]6(C)C5CC[C@@]43C)C[C@](C)(O1)C(C)(C)O2 (some centres not stated) | 31.5 µM | 34.8 µM | 33.3 µM | 43.5 µM | 37.9 µM | 26.9 µM | – | – | – | – | – | – | – | – | – | – | – | – | – | –
2 | O=C(O)/C=C/c1ccc(Oc2ccccc2C(=O)O)o1 | – | > 10 µM | > 10 µM | > 10 µM | > 10 µM | > 10 µM | > 10 µM | > 10 µM | > 10 µM | > 10 µM | – | – | – | – | – | – | – | – | – | –
3 | Cc1ccc(/C=C/C(=O)c2ccc(Cl)c(Cl)c2)cc1 | > 100 µM | > 100 µM | > 100 µM | > 100 µM | > 100 µM | > 100 µM | > 100 µM | – | – | – | – | – | – | – | – | – | – | – | – | –
4 | CCN(CC)CCN(CC)CC.CCN(CC)CCN(CC)CC.[Cu+2].[Cu+2].[O-][Cl+3]([O-])([O-])[O-].[OH3+].[OH3+] | 37.9 µM | 40.3 µM | > 100 µM | > 100 µM | > 100 µM | > 100 µM | > 100 µM | – | – | – | 22.4 µM | > 100 µM | 22.5 µM | > 100 µM | > 100 µM | > 100 µM | > 100 µM | – | – | –
5 | O=C1Nc2c(Cl)cc(Cl)cc2/C1=N/N=C/c1ccco1 | 57.7 µM | > 100 µM | > 100 µM | > 100 µM | > 100 µM | > 100 µM | 73.3 µM | – | 58 µM | > 100 µM | – | – | – | – | – | – | – | – | – | –
6 | CCOC(=O)C12CCCC1(O)N(NC(=O)OC)C(C)=C2C(=O)OC (configuration not stated) | > 100 µM | > 100 µM | > 100 µM | > 100 µM | > 100 µM | > 100 µM | > 100 µM | – | – | – | – | – | – | – | – | – | – | – | – | –
7 | CC(C)(C)C(=O)N1C(C(=O)O)Cc2ccccc2[C@@H]1Cc1ccccc1 (some centres not stated) | > 100 µM | > 100 µM | > 100 µM | > 100 µM | > 100 µM | > 100 µM | > 100 µM | – | – | – | – | – | – | – | – | – | – | – | – | –
8 | C(=N\Nc1ncc(-c2cc3cc4c(cc3o2)OCO4)s1)/c1ccco1 | – | 12.6 µM | 11.6 µM | 6.18 µM | > 100 µM | 23.2 µM | – | 5.49 µM | 3.83 µM | 10.2 µM | – | – | 3.04 µM | 2.9 µM | 1.92 µM | 2.8 µM | 3.83 µM | 2.02 µM | 1.64 µM | 2.86 µM
9 | Cc1cccc(-c2nnc3s/c(=C\c4ccc(N(C)C)cc4)c(=O)n23)c1 | > 100 µM | > 100 µM | > 100 µM | > 100 µM | > 100 µM | > 100 µM | > 100 µM | – | – | – | – | – | – | – | – | – | – | – | – | –
10 | CCOC(=O)C1(C(=O)OCC)C(C(C)(C)C)=C(C)c2ccccc21 | – | 36.3 µM | 39.5 µM | 28.9 µM | 66.1 µM | 44.3 µM | 26.8 µM | – | – | – | – | – | – | – | – | – | – | – | – | –
11 | Oc1ccccc1-c1nn(CNc2ccc(Cl)cc2)c(=S)o1 | > 100 µM | > 100 µM | > 100 µM | – | 89.9 µM | 47.9 µM | > 100 µM | – | > 100 µM | > 100 µM | > 100 µM | 7.01 µM | > 100 µM | 28.3 µM | – | 30.2 µM | 20.6 µM | – | > 100 µM | 3.21 µM
12 | O=C1CCCCCCC2=C1C(Sc1ccccc1)CC2 (configuration not stated) | – | > 100 µM | > 100 µM | > 100 µM | 54 µM | > 100 µM | > 100 µM | – | – | – | – | – | – | – | – | – | – | – | – | –
13 | CSc1cc([C@@H]2C[C@H]2c2ccc(Cl)cc2)on1 | – | 41.8 µM | > 100 µM | – | 46.1 µM | 35.6 µM | > 100 µM | 42 µM | 21.7 µM | 45.1 µM | – | 23.9 µM | 13.8 µM | 9.27 µM | – | 12.3 µM | 15.8 µM | 19.6 µM | 5.51 µM | 16.8 µM
14 | CC(=O)OCc1c(O)c2c([nH]c1=O)CCc1ccccc1-2 | – | > 350 µM | – | > 35 µM | 291 µM | 203 µM | 112 µM | – | – | – | – | – | – | – | – | – | – | – | – | –
15 | O=[N+]([O-])c1ccc(-c2csc(N=Nc3c(O)[nH]c4ccccc34)n2)cc1 | – | > 100 µM | 36.4 µM | – | 70 µM | > 100 µM | > 100 µM | > 100 µM | > 100 µM | > 100 µM | – | – | – | – | – | – | – | – | – | –
16 | Cc1ccc(NCC2(/N=C/c3ccccc3)OC(CO)C(O)C2O)cc1 (configuration not stated) | – | > 100 µM | > 100 µM | > 100 µM | > 100 µM | > 100 µM | > 100 µM | – | – | – | – | – | – | – | – | – | – | – | – | –
17 | Fc1cccc(COc2ccc(Nc3ncnc4onc(-c5ccccc5)c34)cc2)c1 | 3.18 µM | > 100 µM | > 100 µM | > 100 µM | > 100 µM | > 100 µM | 0.787 µM | 0.806 µM | 14.8 µM | – | 0.24 µM | 0.202 µM | 0.406 µM | 0.179 µM | 0.206 µM | 0.262 µM | 37.5 µM | 0.172 µM | 0.402 µM | –
18 | Cc1ccc(S(=O)(=O)ON2C(=O)c3cccc4cc([N+](=O)[O-])cc(c34)C2=O)cc1 | – | > 100 µM | > 100 µM | > 100 µM | > 100 µM | > 100 µM | > 100 µM | > 100 µM | > 100 µM | > 100 µM | – | – | – | – | – | – | – | – | – | –
19 | CC1SC(c2ccccc2Cl)N(NC(=O)C(O)c2ccccc2)C1=O (configuration not stated) | > 100 µM | > 100 µM | > 100 µM | – | > 100 µM | > 100 µM | – | > 100 µM | > 100 µM | > 100 µM | 67.8 µM | – | > 100 µM | 94.3 µM | – | > 100 µM | 49.5 µM | > 100 µM | 33.8 µM | > 100 µM
20 | O=S1(=O)c2ccccc2N(O)C2=NCCN21 | > 100 µM | > 100 µM | > 100 µM | > 100 µM | > 100 µM | > 100 µM | > 100 µM | – | – | – | – | – | – | – | – | – | – | – | – | –
21 | CN(C)c1ccc(/C=c2\sc3nnc(-c4ccco4)n3c2=O)cc1 | > 100 µM | > 100 µM | > 100 µM | > 100 µM | > 100 µM | > 100 µM | > 100 µM | – | – | – | – | – | – | – | – | – | – | – | – | –
22 | CC(=O)OC12C(C)=C(C)C(=O)N1c1ccccc1N2C(C)=O (configuration not stated) | – | > 100 µM | > 100 µM | – | > 100 µM | > 100 µM | > 100 µM | – | – | – | – | – | – | – | – | – | – | – | – | –
